The values below come from patent publication US20190231751A1, “TREATMENT OF FIBROTIC DISORDERS WITH JUN N-TERMINAL KINASE INHIBITORS” (Imago Pharmaceuticals, Inc., priority 2016, published 2019).

Sequence of JNK3 (P53779 whole entry, species assumed): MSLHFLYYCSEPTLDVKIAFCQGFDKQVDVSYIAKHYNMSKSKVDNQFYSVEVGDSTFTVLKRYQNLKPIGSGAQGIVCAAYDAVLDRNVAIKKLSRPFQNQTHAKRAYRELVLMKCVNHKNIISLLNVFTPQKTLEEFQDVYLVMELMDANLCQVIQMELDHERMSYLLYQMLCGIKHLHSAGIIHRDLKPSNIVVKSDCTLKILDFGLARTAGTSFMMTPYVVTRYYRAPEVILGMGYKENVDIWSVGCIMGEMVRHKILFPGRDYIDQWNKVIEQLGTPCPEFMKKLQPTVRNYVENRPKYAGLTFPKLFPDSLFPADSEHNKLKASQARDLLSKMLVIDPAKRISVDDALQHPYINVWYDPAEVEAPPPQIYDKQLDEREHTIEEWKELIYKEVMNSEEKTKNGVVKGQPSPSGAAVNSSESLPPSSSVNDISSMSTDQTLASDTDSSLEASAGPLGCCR

The target of one assay is JNK3 (Homo sapiens, UniProt P53779). Put plainly: In vitro JNK3 inhibition (Table 1). The class given is biochemical. As to the method:
(§1) In vitro assays for the determination of JNK activities are known in the art and exemplary assay formats are described herein.
(§2) IC50 values in Table 1 were determined using the procedures as described in U.S. Pat. No. 8,450,353.
As to `O=C(Cc1cc(F)cc2ncccc12)Nc1scc(Br)c1-c1ncn[nH]1` [N-(4-bromo-3-(1H-1,2,4-triazol-5-yl)thiophen-2-yl)-2-(7-fluoroquinolin-5-yl)acetamide], the IC50 was less than 100 nM.

`O=C(Cc1ccnc2ccccc12)Nc1scc(Br)c1-c1nnc[nH]1` [N-(4-bromo-3-(4H-1,2,4-triazol-3-yl)thiophen-2-yl)-2-(quinolin-4-yl)acetamide] displayed an IC50 of less than 100 nM.

In turn, `O=C(Cc1cccc2ccccc12)Nc1ccsc1-n1ccnc1` [N-(2-(1H-imidazol-1-yl)thiophen-3-yl)-2-(naphthalen-1-yl)acetamide] returned an IC50 of 100 to 10000 nM.

Turning to `COc1ccc(CC(=O)Nc2ccsc2-c2nc(-c3ccncc3)n[nH]2)cc1` [2-(4-methoxyphenyl)-N-(2-(3-(pyridin-4-yl)-1H-1,2,4-triazol-5-yl)thiophen-3-yl)acetamide], the IC50 was greater than 10000 nM.

Regarding `COc1ccc(CC(=O)Nc2ccsc2N2CCOC2=O)cc1` [2-(4-methoxyphenyl)-N-(2-(2-oxooxazolidin-3-yl)thiophen-3-yl)acetamide], the IC50 is greater than 10000 nM.

For `Cc1nnc(-c2c(C)csc2NC(=O)Cc2ccc(-c3ccncc3)cc2)[nH]1` [N-(4-methyl-3-(5-methyl-4H-1,2,4-triazol-3-yl)thiophen-2-yl)-2-(4-(pyridin-4-yl)phenyl)acetamide], the IC50 lay in the range of 100 to 10000 nM.

A further assay deals with JNK1 (Homo sapiens, UniProt P45983). Put plainly: In vitro JNK1 inhibition (Table 1). Type of assay: biochemical. As to the method: as §1, §2
Sequence of JNK1 (P45983 whole entry, species assumed): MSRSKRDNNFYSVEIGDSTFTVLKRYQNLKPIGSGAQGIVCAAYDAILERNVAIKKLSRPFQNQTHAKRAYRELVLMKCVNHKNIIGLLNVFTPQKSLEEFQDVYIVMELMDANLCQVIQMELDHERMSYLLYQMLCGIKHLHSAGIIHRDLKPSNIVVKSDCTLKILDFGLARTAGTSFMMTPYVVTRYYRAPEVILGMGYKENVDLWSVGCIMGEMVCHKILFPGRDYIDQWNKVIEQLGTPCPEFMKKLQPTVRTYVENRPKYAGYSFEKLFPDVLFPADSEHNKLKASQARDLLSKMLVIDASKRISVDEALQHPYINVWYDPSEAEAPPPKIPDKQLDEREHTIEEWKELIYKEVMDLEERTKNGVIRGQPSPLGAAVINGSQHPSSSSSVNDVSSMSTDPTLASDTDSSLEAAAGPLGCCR
In turn, `CC(C)c1n[nH]c(-c2c(Cl)csc2NC(=O)CN2C(=O)CCc3ncccc32)n1` [N-(4-chloro-3-(3-isopropyl-1H-1,2,4-triazol-5-yl)thiophen-2-yl)-2-(2-oxo-3,4-dihydro-1,5-naphthyridin-1(2H)-yl)acetamide] had an IC50 of less than 100 nM.

Take `O=C(Cc1cc(F)cc2ncccc12)Nc1scc(Br)c1-c1ncn[nH]1` [N-(4-bromo-3-(1H-1,2,4-triazol-5-yl)thiophen-2-yl)-2-(7-fluoroquinolin-5-yl)acetamide]: the IC50 was less than 100 nM.

Take `O=C(Cc1ccnc2ccccc12)Nc1scc(Br)c1-c1nnc[nH]1` [N-(4-bromo-3-(4H-1,2,4-triazol-3-yl)thiophen-2-yl)-2-(quinolin-4-yl)acetamide]: the IC50 was less than 100 nM.

`O=C(Cn1c(=O)ccc2cnccc21)Nc1ccsc1-c1cscn1` [2-(2-oxo-1,6-naphthyridin-1(2H)-yl)-N-(2-(thiazol-4-yl)thiophen-3-yl)acetamide] returned an IC50 of less than 100 nM.

Compound `O=C(Cc1cccc2nccn12)Nc1scc(Br)c1-c1ncn[nH]1` [N-(4-bromo-3-(1H-1,2,4-triazol-5-yl)thiophen-2-yl)-2-(imidazo[1,2-a]pyridin-5-yl)acetamide] registered an IC50 of less than 100 nM.

In turn, `O=C(Cc1cc2ncccc2cc1F)Nc1scc(Br)c1-c1ncn[nH]1` [N-(4-bromo-3-(1H-1,2,4-triazol-5-yl)thiophen-2-yl)-2-(6-fluoroquinolin-7-yl)acetamide] registered an IC50 of less than 100 nM.

Turning to `O=C(Cn1c(=O)ccc2cc(F)c(F)cc21)Nc1sccc1-c1ncon1` [N-(3-(1,2,4-oxadiazol-3-yl)thiophen-2-yl)-2-(6,7-difluoro-2-oxoquinolin-1(2H)-yl)acetamide], the IC50 was less than 100 nM.

On to `Cc1cn2c(CC(=O)Nc3scc(Br)c3-c3ncn[nH]3)csc2n1` [N-(4-bromo-3-(1H-1,2,4-triazol-5-yl)thiophen-2-yl)-2-(6-methylimidazo[2,1-b]thiazol-3-yl)acetamide], for which the IC50 is less than 100 nM.

`O=C(CN1C(=O)C(F)(F)c2ccccc21)Nc1scc(Br)c1-c1nnc[nH]1` [N-(4-bromo-3-(4H-1,2,4-triazol-3-yl)thiophen-2-yl)-2-(3,3-difluoro-2-oxoindolin-1-yl)acetamide] registered an IC50 of less than 100 nM.

On to `O=C(CN1C(=O)CCc2ccccc21)Nc1sccc1-c1ncn[nH]1` [N-(3-(1H-1,2,4-triazol-5-yl)thiophen-2-yl)-2-(2-oxo-3,4-dihydroquinolin-1(2H)-yl)acetamide], for which the IC50 is less than 100 nM.

As for `O=C(Cc1ccc(C(F)(F)F)c2ncccc12)Nc1scc(Cl)c1-c1ncn[nH]1` [N-(4-chloro-3-(1H-1,2,4-triazol-5-yl)thiophen-2-yl)-2-(8-(trifluoromethyl)quinolin-5-yl)acetamide], the IC50 was less than 100 nM.

Consider `O=C(Cc1cccc2cc(F)cnc12)Nc1scc(Br)c1-c1nc[nH]n1` [N-(4-bromo-3-(1H-1,2,4-triazol-3-yl)thiophen-2-yl)-2-(3-fluoroquinolin-8-yl)acetamide], for which the IC50 is less than 100 nM.
